According to article PMC12264794, “Homoleptic complexes of titanium(IV) fused with O^N^O Schiff base derivatives: design, BSA–DNA interaction, molecular docking, DFT and cytotoxicity” (RSC Advances, 2025):

What was measured:
[1] = system: HEK-293 cells; experiment: MTT cytotoxicity assay, HEK-293; format: cell-based, human; details: 48 h of drug exposure
Method: The in vitro cytotoxicity of the Ti(IV) complexes under investigation was investigated using MTT, a micro-titration colorimetric method. The in vitro cytotoxicity test of the Ti(IV) complexes was evaluated against the cervical cancer cell line (HeLa), human breast cancer cell line (MCF-7) and human kidney normal cell line (HEK-293).[65,66]
In the cytotoxicity assay, tetrazolium salt 3-[4,5-dimethylthiazol-2-yl]-2,5diphenyl tetrazolium bromide (MTT) was utilized to assess cell viability. […] A Bio-Rad xMARK™ multi-well plate reader was used to measure the absorbance of each well at 570 nm. Using eqn (2), the percentage viability, which represents the relative viability of the treated cells in comparison to the control cells, was calculated, and the IC50 values and standard deviation of the substances under investigation were calculated in triplicate.2 [drawing 2]
An MTT assay was used to examine the cytotoxic effectiveness of the produced Ti(IV) complexes. After 48 hours of incubation, the cytotoxicity of Ti-1-IS to Ti-6-IBr was evaluated against human cancer cell lines, such as breast carcinoma (MCF7) and cervical cancer (HeLa), as well as the non-cancerous human embryonic kidney (HEK) cell line, by using the widely used therapeutic drug, cis-platin, as a positive control by following the standard protocol.

[2] = system: CT-DNA; experiment: UV-vis absorption titration with CT-DNA; format: binding, calf
Method: The UV-vis titration technique was employed to conduct DNA binding investigations of the newly synthesized Ti(IV)complexes. The binding interactions between Ti(IV) complexes and CT-DNA 5 mM (5 × 10^−5 M) produced in PBS buffer were assessed in a 5 mM phosphate buffer (PBS) with a pH of 7.4. The ratio of UV absorbance of CT-DNA at each position, 260 and 280 nm, was confirmed. The concentration of each nucleotide was calculated using the molar absorption coefficient (6600 m^−1) of CT-DNA at 260 nm. Additional dilutions were made in 5 mM PBS buffer solution, and stock solutions of metal complexes were prepared in DMSO. DNA binding experiments were performed with a fixed concentration of the complex (20 μM) and increasing concentrations of CT-DNA (0–80 μM) in sample solutions to detect the CT-DNA absorbance peak.[41,42]
UV-vis spectra typically show a shift in wavelength and a change in absorption spectra as a result of the interaction of the Ti(IV) complexes with DNA. […] Then, using eqn (4), the binding characteristics for the aforementioned complexes, including binding constant (Kb) and binding sites, were determined.4 [drawing 4] where εa, εf, and εb represent the apparent extinction coefficient of the complex, the extinction coefficient of the complex in its free form and the extinction coefficient of the complex when completely bound to DNA.

| SMILES | IC50 [1] | Binding constant with DNA [2] |
| --- | --- | --- |
| [O-]C(=NN=Cc1c([O-])ccc2ccccc12)c1ccncc1.[O-]C(=NN=Cc1c([O-])ccc2ccccc12)c1ccncc1.[Ti+4] [Ti-2-IN] | > 250 µM | – |
| [O-]C(=NN=Cc1cc(F)ccc1[O-])c1ccncc1.[O-]C(=NN=Cc1cc(F)ccc1[O-])c1ccncc1.[Ti+4] [Ti-4-IF] | – | 297000 M⁻¹ |
| [O-]C(=NN=Cc1cc(Cl)ccc1[O-])c1ccncc1.[O-]C(=NN=Cc1cc(Cl)ccc1[O-])c1ccncc1.[Ti+4] [Ti-5-ICl] | > 250 µM | – |
